Key:
[1] = tested on: murine adenocarcinoma CaNT tumour; assay: CaNT tumour model growth delay, ZD6126 in combination with cisplatin; assay type: in vivo, mice
Method: ZD6126 alone was dosed on days 0, 2 and 4 using a split dose regimen of 100 mg/kg ZD6126, followed by a 2 hour interval, followed by a further 100 mg/kg ZD6126; doses were given intraperitoneally (i.p.).
Cisplatin (David Bull Laboratories) alone was dosed at 5 mg/kg i.p on day 0.
(§1) The combination treatment consisted of: • Day 0: ZD6126 100 mg/kg i.p., followed by a 2 hour interval, followed by a further 100 mg/kg ZD6126 i.p; and cisplatin 5 mg/kg given 10 minutes before first ZD6126 dose. • Days 2 and 4: ZD6126 100 mg/kg i.p., followed by a 2 hour interval, followed by a further 100 mg/kg ZD6126 i.p..
ZD6126 alone was dosed on days 0, 4, 7 and 11 using a split dose regimen of ZD6126 100 mg/kg i.p., followed by a 2 hour interval, followed by a further 100 mg/kg ZD6126 i.p.. Cisplatin alone was dosed at 5 mg/kg i.p on day 0 and day 7.
as §1, with “• Days 0 and 7:” for “• Day 0:”, “ZD6126 i.p.;” for “ZD6126 i.p; and”, “cisplatin” for “cisplatin 5 mg/kg”, “Days 3, 7” for “Days 2”, “and 10:” for “and 4:”

[2] = tested on: human Calu 6 tumour cells; assay: Calu 6 tumour model growth delay, ZD6126 in combination with cisplatin; assay type: in vivo; settings: athymic nude mice; ZD6126 100 mg/kg i.p. x5 days; cisplatin 4 mg/kg i.p. day 0
Method: In a second tumour model, Calu 6, the advantage of combining ZD6126 and cisplatin (cis-Platinum(II)Diammine Dichloride—Sigma P-4394) was confirmed. Athymic nude mice were implanted subcutaneously with 1×10^6 human Calu 6 tumour cells (obtained from American Type Culture Collection, 10801 University Boulevard, Manassas, Va. 20110-2209 Cat. no. Hm-56) and tumours allowed to grow until they were approximately 9 mm in diameter. Groups of 10 tumour bearing mice were then treated as follows:
ZD6126 alone was dosed 100 mg/kg i.p. on days 0, 1, 2, 3, 4.
Cisplatin alone was dosed 4 mg/kg i.p. on day 0.
In the combination arm cisplatin 4 mg/kg i.p. was dosed on day 0, and ZD6126 100 mg/kg i.p. was dosed on days 1, 2, 3, 4 and 5.
The combination of cisplatin and ZD6126 gave a growth delay (time to reach 2× starting volume) of 20.5 days compared to control tumours.

CaNT tumours = assay: CaNT tumour model growth delay, ZD6126 in combination with ionising radiation; assay type: in vivo, mice; settings: ZD6126 125 mg/kg i.p. days 0-4 and 7-11; radiation 15 Gy days 0 and 7
Method: The activity of combining ZD6126 and radiation in the CaNT tumour model was also investigated. Tumours were treated with either radiation alone (15 Gy days 0 and 7), ZD6126 alone (single dose of ZD6126 125 mg/kg i.p. on days 0, 1, 2, 3, 4, 7, 8, 9, 10 and 11), or a combination of both (15 Gy days 0 and 7, ZD6126 125 mg/kg i.p. on days 0, 1, 2, 3, 4, 7, 8, 9, 10 and 11). On the days radiation and ZD6126 were administered together,radiation treatment was given 3 hours after ZD6126 administration. Radiation was administered by placing the mice in lead boxes so that only the tumour bearing portion of the rear dorsum was exposed to a horizontal X-ray beam (Sheldon and Hill, B J C, 35, 795-808, […]). Mice were irradiated with 240 kV X-rays at a dose rate of 3.6 Gy/min.

murine KHT sarcoma [3] = assay: KHT sarcoma tumour cell survival (excision and colony formation), ZD6126 and radiation; assay type: in vivo, mice
Method: The murine KHT sarcoma grown in C3H mice was also used to confirm the advantage of combining ZD6126 and radiation. Tumours were treated with either radiation alone (0, 5, 10, 15 or 20 Gy single dose), ZD6126 100 mg/kg i.p., or radiation followed 1 hour later by ZD6126 100 mg/kg i.p.. The effects of either radiation alone, ZD6126 alone or the combination on tumour cell survival was assessed 24 hours later by excising the tumour, disaggregating the cells and determining the number of colonies formed after 10-14 days. Surviving fraction compared to untreated cells was then determined.

[4] = tested on: FaDu cells (human squamous cell carcinoma of the pharynx); assay: FaDu tumour model growth delay, ZD6126 in combination with paclitaxel; assay type: in vivo; settings: SCID mice; single dose ZD6126 125 mg/kg i.p.; paclitaxel 15 mg/kg i.p.
Method: In a third tumour model 5×10^5FaDu cells (human squamous cell carcinoma of the pharynx) were implanted onto the rear dorsum of 12-16 week old, female SCID mice. When the tumours had become established they were excised and cut into small tumour fragments approximately 1 mm^3. These fragments were implanted subcutaneously into further SCID mice. Once these tumours had become established (approximately 6 mm diameter) mice were treated with either a single dose of ZD6126 (125 mg/kg i.p.) alone, a single dose of paclitaxel (Taxol-BMS) (15 or 30 mg/kg i.p.) alone or the combination of a single dose of paclitaxel (15 mg/kg i.p.) and ZD6126 (125 mg/kg i.p.), paclitaxel being given 15 minutes before ZD6126.

[5] = tested on: murine adenocarcinoma CaNT tumour; assay: In vivo cell survival excision assay, ZD6126 single versus divided doses in CaNT tumours; parameters: species or system mice
Method: In vivo cell survival was measured using an excision assay (D J Chaplin et al., Anticancer Research 19: 189-196 (1999)).
For each of the assays a) and b) below, the surviving fraction of tumour cells was determined as follows:
Tumours were excised at about 18 hours after treatment, weighed and disaggregated for 1 hour at 37 degrees Celsius in an enzyme cocktail containing 1 mg/ml pronase, 0.5 mg/ml DNAase and 0.5 mg/ml collagenase. Haemocytometer counts of trypan blue-excluding cells were made and viable cells seeded in appropriate concentrations to yield about 50 colonies/dish after in vitro incubation. Heavily irradiated feeder cells (V79 cells) were used at a concentration of 25,000/ml to support the growth of the surviving CaNT cells. The data were calculated as surviving fraction per gram of tumour.
ZD6126 was administered as a single dose of […] intra-peritoneally (i.p.) in saline with a small amount of 1% sodium carbonate added to aid the dissolution of ZD6126.
ZD6126 was dosed using a split dose regimen of 100 mg/kg ZD6126, followed by a time interval, followed by a further 100 mg/kg ZD6126; doses were given intraperitoneally (i.p.) in saline with a small amount of 1% sodium carbonate added to aid the dissolution of ZD6126.
The time intervals used were 1, 2, 3, 4 and 6 hours.
This improved effect varied with the proportion of total dose given in the first and second doses.
ZD6126 was dosed using split dose regimens of: • i) 25 mg/kg ZD6126, followed by a 2 hour interval, followed by a further 175 mg/kg ZD6126; • ii) 50 mg/kg ZD6126, followed by a 2 hour interval, followed by a further 150 mg/kg ZD6126; • iii) 100 mg/kg ZD6126, followed by a 2 hour interval, followed by a further 100 mg/kg ZD6126; • iv) 150 mg/kg ZD6126, followed by a 2 hour interval, followed by a further 50 mg/kg ZD6126; • v) 175 mg/kg ZD6126, followed by a 2 hour interval, followed by a further 25 mg/kg ZD6126;
All doses were given intraperitoneally (i.p.) in saline with a small amount of 1% sodium carbonate added to aid the dissolution of ZD6126.

murine KHT sarcoma [6] = assay: KHT sarcoma tumour cell survival (excision and colony formation), cisplatin plus ZD6126; assay type: in vivo; settings: 10 mg/kg cisplatin i.p. alone; assessed 24 hours later
Method: In the murine KHT sarcoma model (Lingyun Li, B. S. et al, Int. J. Radiation Oncology Biol. Phys 42, 899-903, 1998) tumours were treated with either 10 mg/kg cisplatin i.p. alone or 10 mg/kg cisplatin plus ZD6126 (10-100 mg/kg i.p.), cisplatin given 1 hour prior to ZD6126. The effects of the treatments on tumour cell survival was assessed 24 hours later by excising the tumour, disaggregating the cells and determining the number of colonies formed after 10-14 days. Surviving fraction compared to untreated cells was then determined.

[7] = study 1, ZD6126 2x100 mg/kg i.p. 2 h apart days 0, 2, 4, cisplatin 5 mg/kg i.p. day 0
[8] = study 2, ZD6126 2x100 mg/kg i.p. 2 h apart days 0, 4, 7, 11, cisplatin 5 mg/kg i.p. days 0 and 7

SMILES	Mean growth delay (vs control) - days [1, 7]	Mean growth delay (vs control) - days [1, 8]	growth delay (time to reach 2× starting volume) compared to control tumours [2]	Mean growth delay (vs control) - days (CaNT tumours)	tumour cells killed (murine KHT sarcoma [3]; ZD6126 alone 100 mg/kg)	enhancement in cell killing (murine KHT sarcoma [3]; ZD6126 combined with radiation doses of 5, 10 or 15 Gy)	Plus ZD6126 % cell survival (murine KHT sarcoma [3]; radiation dose 0 Gy, ZD6126 100 mg/kg i.p., C3H mice)	ZD6126 Enhancement (murine KHT sarcoma [3]; radiation dose 0 Gy, ZD6126 100 mg/kg i.p., over controls)	Plus ZD6126 % cell survival (murine KHT sarcoma [3]; radiation dose 5 Gy, ZD6126 100 mg/kg i.p. 1 hour later)	ZD6126 Enhancement (murine KHT sarcoma [3]; radiation dose 5 Gy, ZD6126 100 mg/kg i.p.)	Plus ZD6126 % cell survival (murine KHT sarcoma [3]; radiation dose 10 Gy, ZD6126 100 mg/kg i.p. 1 hour later)	ZD6126 Enhancement (murine KHT sarcoma [3]; radiation dose 10 Gy, ZD6126 100 mg/kg i.p.)	Plus ZD6126 % cell survival (murine KHT sarcoma [3]; radiation dose 15 Gy, ZD6126 100 mg/kg i.p. 1 hour later)	ZD6126 Enhancement (murine KHT sarcoma [3]; radiation dose 15 Gy, ZD6126 100 mg/kg i.p.)	Mean growth delay (vs control) - days [4]	split dose proportion giving the best anti-tumour effect ([5]; 100 mg/kg, 2 hour interval, further 100 mg/kg i.p.)	anti-tumour effect, as measured by surviving fraction of tumour cells, divided doses versus single dose ([5]; divided doses 2 hours apart (25+175, 50+150, 100+100, 150+50, 175+25 mg/kg i.p.) vs single 200 mg/kg)	surviving fraction per gram of tumour, divided doses versus single dose ([5]; two doses of 100 mg/kg i.p. separated by 2, 3 or 4 hours vs a single 200 mg/kg dose, about 18 hours after treatment)	cell killing (murine KHT sarcoma [6])
COc1cc2c(c(OC)c1OC)-c1ccc(OP(=O)(O)O)cc1[C@@H](NC(C)=O)CC2 [ZD6126, (5S)-5-(acetylamino)-9,10,11-trimethoxy-6,7-dihydro-5H-dibenzo[a,c]cyclohepten-3-yl dihydrogen phosphate]	6.5 days	9.9 days	10.1 days	9.1 days	97-98%	100-200 fold	2.5%	40 fold	0.16%	125 fold	0.015%	100 fold	0.0016%	219 fold	4.3 days	best effect was seen with equal split doses	greater with divided doses of ZD6126 than with a single dose	significantly more effective	
CC(=O)O[C@H]1C(=O)[C@@]2(C)[C@H]([C@H](OC(=O)c3ccccc3)[C@]3(O)C[C@H](OC(=O)[C@H](O)[C@@H](NC(=O)c4ccccc4)c4ccccc4)C(C)=C1C3(C)C)[C@]1(OC(C)=O)CO[C@@H]1C[C@@H]2O [Paclitaxel, paclitaxel, reference compound]															5.1 days				
N.N.[Cl-].[Cl-].[Pt+2] [Cisplatin, cis-Platinum(II)Diammine Dichloride, reference compound]	2.1 days	7.7 days	6.0 days																approximately 98%

— patent US20050107346A1, “N-acetylcolchinol-o-phosphate combination therapies with vascular damaging activity” (ASTRAZENECA AB, priority 2000, published 2005)
